Reference: patent US9446087B2, “Anti-resorptive and bone building dietary supplements and methods of use” (priority 2006, dated 2016)
Values joined by “and” are separate entries in the source; they are usually repeats but may differ in a detail not shown here. Equal entries are not always repeated. Marks after values point to notes of the source that are not given here.

Experiments:
BMP-2 promoter = experiment: BMP2 Promoter assay (2T3-BMP2-Luciferase cells, luciferase); type: cell-based, murine
BMP-2 protein = experiment: BMP-2 Protein Expression Assay (Hu09 cells, ELISA); type: cell-based
Description: The cells are treated with different proteasome inhibitors for 24 hours. After incubation, the conditioned media is transferred into microcentrifuge tubes and centrifuged at 14,000 rpm for 2-3 minutes to remove cellular debris. The concentration of BMP-2 protein in the supernatant is then determined using the standard BMP-2 Elisa Kit (R&D ELISA KIT DBP200). Recombinant hBMP-2 (R&D) is used as a standard.

BMP-2 = BMP-2 Gene Expression Assay (MG-63 cells, real time PCR); type: cell-based, human
Description: It is also possible to test for BMP-2 gene expression and protein expression using assays similar to those described above for testing BMP-2 promoter activity. In particular, for gene expression, the human osteosarcoma cell line, MG-63 (ATCC# CRL-1427), is maintained in phenol-red containing MEM (as recommended by ATCC) at 37° C. and 5% CO2. Twenty-four hours prior to experimentation, 3×10^5 cells are seeded in 12-well plates in phenol-red free MEM. […] After an overnight incubation, RNA is extracted using conventional trizol/guanidine isothiocyanate based lysis. The isolated RNA was digested with RNase-free DNase I to remove any DNA contamination and then reverse transcribed to cDNA using random hexamer as well as oligo(dT) primers according to the manufacturer's instructions (Stratagene). Quantitative real time PCR is performed using FAM-labeled specific primers for BMP-2 and HEX-labeled specific primers for 18S rRNA (Invitrogen). All reactions are carried out in triplicate and the relative amount of mRNAs in treated versus untreated samples is calculated using the comparative CT method established by Applied Biosystems (2001). Gene expression changes of 2-fold or greater are considered significant.

Neonatal murine calvaria = experiment: Calvarial Assay to Measure Bone Growth; type: cell-based, Swiss white mice
Description: Neonatal murine calvaria from 4 day old Swiss white mice are excised, placed into BGJ media (Sigma), and cut in half along the midline suture. One milliliter of BGJ media supplemented with 0.1% bovine serum albumin (BSA) is added to each well of a 12 well tissue culture plate (Costar) to which the relevant factors or vehicles are added. Each half calvaria is placed on a stainless steel grid in the above media at the media/air interface. Usually 4 bones per experimental group are used. […] Factors to be tested are added on Day 0 (the day of dissection) and media is changed at 24 and 96 hours (if a 7 day assay is required). Calvaria are maintained in humidified air (5% Co2), at 37° C. Following the period of incubation, the calvaria are then removed and fixed overnight in 10% formalin. The calvaria are then decalcified in 14% EDTA overnight and are then embedded in paraffin wax. Sections are then cut, using a standard microtome, along the midline suture to reveal the coronal suture and the region posterior to this suture. Four micrometer sections were taken initially and at two sequential […] depths. Sections are placed on coated glass slides (Superfrost plus, Fisher Scientific, Pittsburgh, Pa.) and stained with hematoxylin and eosin. The total and new bone area (expressed as mm^2), suture thickness (mm), and number of cells lining the bone surface are determined in the section posterior to the […] suture. Histomorphometric analysis is performed using the Osteomeasure System (Osteometrics INC, Atlanta, Ga.).

[1] = tested on: Female, Sprague Dawley rats; experiment: In Vivo Study to Measure Bone Growth - histomorphological measurements; parameters: species or system rat; conditions: positive control, 50 μg/kg (10 μg/200 g)/3 × per week; 35 days; vs placebo group
Description: Three different formulas were tested in an in vivo study involving female, intact rats, aged approximately 12-14 weeks, with approximate body weights between 200-250 grams. Formula 1 included dosages of quercetin anhydrate and licorice at 250 mg quercetin:250 mg licorice ethanol extract and 500 mg quercetin:500 mg licorice ethanol extract. Formula 2 included dosages of quercetin anhydrate and licorice at 250 mg quercetin:125 mg licorice ethanol extract; 500 mg quercetin:250 mg licorice ethanol extract; and 1000 mg quercetin:500 mg licorice ethanol extract. Formula 3 included dosages of quercetin and licorice at 1000 mg quercetin:200 mg licorice ethanol extract. The study lasted 35 days. Eight separate groups of rats were tested with 15 rats in each group. Two of the eight groups of rats tested were control groups. One was a placebo control group and the other group received 50 μg/kg (10 μg/200 g)/3× per week parathyroid hormone. Parathyroid hormone, known as an anabolic agent, served as a positive control. See, e.g., Turner et al., “Disuse in adult male rats attenuates the bone anabolic response to a therapeutic dose of parathyroid hormone.” J. Appl Physiol. 2006. […]
(§1) The effectiveness of the formulas on bone formation was assessed by outcome measurements that included biomechanical measurement (to assess bone strength and function information), micro-CT (to analyze virtual bone quality and function information), and histomorphology measurement (to analyze bone quality and functional information). […] These measurements were determined after 35 days of treatment.
Six animals from each group were sacrificed on day 35 following treatment. […] To determine the effect of the different formulas on bone formation, trabecula bone volume, trabecular cells number and trabecular separation were assessed by histomorphology technique. […]
Bone mineral apposition rate (MARs), also reported by Table 8, was determined by measuring the mean interlabel distance divided by the time interval (5 days) between the two fluororchromes administered. […]

[2] = tested on: Female, Sprague Dawley rats; experiment: In Vivo Study to Measure Bone Growth - biomechanical measurements; parameters: species or system rat; conditions: positive control, 50 μg/kg (10 μg/200 g)/3 × per week; 35 days; vs placebo group
Description: Three different formulas were tested in an in vivo study involving female, intact rats, aged approximately 12-14 weeks, with approximate body weights between 200-250 grams. Formula 1 included dosages of quercetin anhydrate and licorice at 250 mg quercetin:250 mg licorice ethanol extract and 500 mg quercetin:500 mg licorice ethanol extract. Formula 2 included dosages of quercetin anhydrate and licorice at 250 mg quercetin:125 mg licorice ethanol extract; 500 mg quercetin:250 mg licorice ethanol extract; and 1000 mg quercetin:500 mg licorice ethanol extract. Formula 3 included dosages of quercetin and licorice at 1000 mg quercetin:200 mg licorice ethanol extract. The study lasted 35 days. […]
as §1
Besides bone mass and bone volume evaluation, bone strength was examined mechanically using two different parameters. One parameter measured the maximum force needed to fracture the bone and the other determined the stiffness (the elasticity) of bone. […]

[3] = tested on: Female, Sprague Dawley rats; experiment: In Vivo Study to Measure Bone Growth - micro-CT measurements; parameters: species or system rat; conditions: positive control, 50 μg/kg (10 μg/200 g)/3 × per week; 35 days; vs placebo group
Description: Three different formulas were tested in an in vivo study involving female, intact rats, aged approximately 12-14 weeks, with approximate body weights between 200-250 grams. Formula 1 included dosages of quercetin anhydrate and licorice at 250 mg quercetin:250 mg licorice ethanol extract and 500 mg quercetin:500 mg licorice ethanol extract. Formula 2 included dosages of quercetin anhydrate and licorice at 250 mg quercetin:125 mg licorice ethanol extract; 500 mg quercetin:250 mg licorice ethanol extract; and 1000 mg quercetin:500 mg licorice ethanol extract. Formula 3 included dosages of quercetin and licorice at 1000 mg quercetin:200 mg licorice ethanol extract. The study lasted 35 days. Eight separate groups of rats were tested with 15 rats in each group. Two of the eight groups of rats tested were control groups. One was a placebo control group and the other group received 50 μg/kg (10 μg/200 g)/3× per week parathyroid hormone. Parathyroid hormone, known as an anabolic agent, served as a positive control. See, e.g., Turner et al., “Disuse in adult male rats attenuates the bone anabolic response to a therapeutic dose of parathyroid hormone.” J. Appl Physiol. 2006. Vol. 101:881-886, the entire contents of which are incorporated herein by reference.
Table 7 below indicates the formula given to each of the 8 test groups. The dosages in Table 7 are based on the recommended human daily dosages. FDA dose conversion formula (Human equivalent dose (HED, mg/kg)=rat dose in mg/kg×(rat weight in kg/human weight in kg)^0.33) was used to convert the human dose to the rat dose. HED=rat NOAEL×(W-rat/W-human)^(1-b), b=0.67.
Female, Sprague Dawley rats were used (200-250 gm each, ˜12-14 weeks old). Animals were fed at 15 gm/day, which included either a placebo diet or one of the formulas listed above, for a period of 35 days from the beginning of the experiment. Chow was made available each morning to the rats at the rate of 15 grams/rat/day. The rats were allowed free access to water and housed in appropriate cages for the entire experiment. Unrestricted activity was allowed during the entire experiment, which lasted 35 days.
as §1, with “treatment. […]” for “treatment.”
Obtaining information from a wide range of parameters such as bone mineral density (BMD), bone volume (% bone volume/total volume), trabecular number, and trabecular separation is critical for bone structure assessment quantitatively and qualitatively. […]

O=c1c(O)c(-c2ccc(O)c(O)c2)oc2cc(O)cc(O)c12 [Q, Quercetin]
BMP2 Promoter assay (ratio to control) (BMP-2 promoter; 0.05 μg/ml): 1.00 FOLD
BMP2 Promoter assay (ratio to control) (BMP-2 promoter; 0.1 μg/ml): 1.10 FOLD
BMP2 Promoter assay (ratio to control) (BMP-2 promoter; 0.2 μg/ml): 1.10 FOLD
BMP2 Promoter assay (ratio to control) (BMP-2 promoter; 0.4 μg/ml): 1.00 FOLD
BMP2 Promoter assay (ratio to control) (BMP-2 promoter; 0.8 μg/ml): 1.15 FOLD
BMP2 Promoter assay (ratio to control) (BMP-2 promoter; 1.6 μg/ml): 1.30 FOLD
BMP2 Promoter assay (ratio to control) (BMP-2 promoter; 3.2 μg/ml): 1.80 FOLD
BMP2 Promoter assay (ratio to control) (BMP-2 promoter; 6.3 μg/ml): 2.30 FOLD
BMP2 Promoter assay (ratio to control) (BMP-2 promoter; 12.5 μg/ml): 2.90 FOLD
BMP2 Promoter assay (ratio to control) (BMP-2 promoter; 25 μg/ml): 3.60 FOLD
BMP2 Promoter assay (ratio to control) (BMP-2 promoter; 50 μg/ml): 4.80 FOLD
BMP2 Promoter assay (ratio to control) (BMP-2 promoter; 100 μg/ml): 5.20 FOLD
BMP-2 Protein Expression (BMP-2 protein; 1 μg/ml): 2.0 FOLD
BMP-2 Protein Expression (BMP-2 protein; 10 μg/ml): 4.6 FOLD
BMP-2 Protein Expression (BMP-2 protein; 100 μg/ml): 2.2 FOLD
BMP-2 Expression (fold change) (BMP-2; 0.1 μg/ml): No change (−1.06) fold change
BMP-2 Expression (fold change) (BMP-2; 1 μg/ml): 2 fold change and 2.03 fold change
BMP-2 Expression (fold change) (BMP-2; 5 μg/ml): 2.51 ± 0.14 fold change
Fold Change in Gene Expression (BMP-2; 10 μg/ml): 2.6 × increase
BMP-2 Expression (fold change) (BMP-2; 20 μg/ml): 4.61 ± 0.07 fold change
BMP-2 Expression (fold change) (BMP-2; 100 μg/ml): 14 fold change
Calvarial Assay Results - Bone Formation Stimulated by Extract Combinations (Neonatal murine calvaria; 0.2 ug/ml): 6.90 ± 0.56 mm^2 × 10^−3
Calvarial Assay Results - Bone Formation Stimulated by Extract Combinations (Neonatal murine calvaria; 0.7 ug/ml): 10.30 ± 0.78^a mm^2 × 10^−3
Calvarial Assay Results - Bone Formation Stimulated by Extract Combinations (Neonatal murine calvaria; 1 ug/ml): 13.70 ± 3.20^a mm^2 × 10^−3
Calvarial Assay Results- Bone formation (Neonatal murine calvaria; 1 μg/ml): 7.57 ± 1.52 mm^2 × 10^−3
Calvarial Assay Results - Bone Formation Stimulated by Extract Combinations (Neonatal murine calvaria; 8.3 ug/ml): 0.10 ± 0.10 mm^2 × 10^−3
Calvarial Assay Results- Bone formation (Neonatal murine calvaria; 10 μg/ml): 13.41 ± 2.50^a mm^2 × 10^−3
Calvarial Assay Results - Bone Formation Stimulated by Extract Combinations (Neonatal murine calvaria; 14.3 ug/ml): 0.10 ± 0.12 mm^2 × 10^−3
Calvarial Assay Results- Bone formation (Neonatal murine calvaria; 100 μg/ml): 13.55 ± 1.47^a mm^2 × 10^−3

CCC(C)(C)C(=O)O[C@H]1C[C@@H](C)C=C2C=C[C@H](C)[C@H](CC[C@@H]3C[C@@H](O)CC(=O)O3)[C@H]21 [Simvastatin]
Calvarial Assay Results- Bone formation (Neonatal murine calvaria; 0.25 μM, positive control): 7.45 ± 1.34 mm^2 × 10^−3
Calvarial Assay Results- Bone formation (Neonatal murine calvaria; 0.5 μM, positive control): 9.50 ± 1.00 mm^2 × 10^−3
Calvarial Assay Results- Bone formation (Neonatal murine calvaria; 1 μM, positive control): 12.5 ± 1.00 mm^2 × 10^−3

B1: PTH: parathyroid hormone, anabolic agent, positive control (protein, UniProt P01270 32-115, looked up)
Parathyroid hormone: SVSEIQLMHNLGKHLNSMERVEWLRKKLQDVHNFVALGAPLAPRDAGSQRPRKKEDNVLVESHEKSLGEADKADVNVLTKAKSQ
modifications: Parathyroid hormone
notes: parathyroid hormone, anabolic agent, positive control
Trabecular Separation [1]: −38.30%
Trabecular thickness [1]: 7.35%
reduction in trabecular separation [1]: 38.30%
Bone Stiffness [2]: 0.0%
Maximum Force Required to Fracture Bones [2]: 0.0%
% Bone Volume/ Total Volume [3]: 32%^a
Bone Mineral Density (BMD) [3]: 86%^a
Trabecular Number (N/6 mm^2) [3]: 25%^a
Trabecular separation (mm) [3]: −28%^a
